This note sets out measurements from ChEMBL document CHEMBL5465560, “Selectivity Literature for EUbOPEN Chemogenomic Library” (2024).

Test [1] has as its target T1, Ephrin type-A receptor 8 (Homo sapiens) (UniProt P29322).
T1 sequence (whole entry): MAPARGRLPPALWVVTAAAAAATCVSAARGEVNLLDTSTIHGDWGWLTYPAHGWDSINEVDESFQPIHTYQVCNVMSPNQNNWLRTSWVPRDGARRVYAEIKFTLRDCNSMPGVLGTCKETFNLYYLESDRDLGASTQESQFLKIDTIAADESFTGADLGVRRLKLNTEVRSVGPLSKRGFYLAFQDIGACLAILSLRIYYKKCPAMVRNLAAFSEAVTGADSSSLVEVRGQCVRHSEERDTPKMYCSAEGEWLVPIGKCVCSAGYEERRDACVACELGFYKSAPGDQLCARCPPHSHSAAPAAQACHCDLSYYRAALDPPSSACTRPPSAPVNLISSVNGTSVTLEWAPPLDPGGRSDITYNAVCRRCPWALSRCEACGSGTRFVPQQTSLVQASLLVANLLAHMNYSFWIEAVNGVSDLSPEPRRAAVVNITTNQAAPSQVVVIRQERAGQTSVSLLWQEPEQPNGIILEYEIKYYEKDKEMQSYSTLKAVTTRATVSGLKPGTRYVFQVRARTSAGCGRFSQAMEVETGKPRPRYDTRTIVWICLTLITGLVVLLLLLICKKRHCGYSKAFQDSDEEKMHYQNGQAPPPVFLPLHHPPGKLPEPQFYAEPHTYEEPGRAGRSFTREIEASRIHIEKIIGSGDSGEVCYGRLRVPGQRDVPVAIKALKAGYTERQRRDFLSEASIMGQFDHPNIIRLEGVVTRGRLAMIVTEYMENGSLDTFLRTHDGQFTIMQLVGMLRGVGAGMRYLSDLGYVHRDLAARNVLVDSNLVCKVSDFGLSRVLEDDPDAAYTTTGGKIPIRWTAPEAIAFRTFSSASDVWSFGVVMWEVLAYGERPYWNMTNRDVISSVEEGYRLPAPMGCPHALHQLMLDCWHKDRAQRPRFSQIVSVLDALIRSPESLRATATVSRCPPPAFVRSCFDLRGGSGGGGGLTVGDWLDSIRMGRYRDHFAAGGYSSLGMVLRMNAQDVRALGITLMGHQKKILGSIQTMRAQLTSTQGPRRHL
The settings on record: at 10 µM.

Test [2] deals with Angiopoietin-1 receptor (Homo sapiens) (UniProt Q02763). The test can be described thus: Selectivity interaction (KinomeScan (DiscoverX)) EUB0000666a TEK. As to conditions: at 10 µM.
Test [3] deals with Tyrosine-protein kinase ABL1 (Homo sapiens), P00519 [F317I]. The test can be described thus: Selectivity interaction (KinomeScan (DiscoverX)) EUB0000607a ABL1. As to conditions: at 10 µM.
The target of test [4] is T2, Atypical kinase COQ8B, mitochondrial (Homo sapiens) (UniProt Q96D53).
T2 sequence (whole entry): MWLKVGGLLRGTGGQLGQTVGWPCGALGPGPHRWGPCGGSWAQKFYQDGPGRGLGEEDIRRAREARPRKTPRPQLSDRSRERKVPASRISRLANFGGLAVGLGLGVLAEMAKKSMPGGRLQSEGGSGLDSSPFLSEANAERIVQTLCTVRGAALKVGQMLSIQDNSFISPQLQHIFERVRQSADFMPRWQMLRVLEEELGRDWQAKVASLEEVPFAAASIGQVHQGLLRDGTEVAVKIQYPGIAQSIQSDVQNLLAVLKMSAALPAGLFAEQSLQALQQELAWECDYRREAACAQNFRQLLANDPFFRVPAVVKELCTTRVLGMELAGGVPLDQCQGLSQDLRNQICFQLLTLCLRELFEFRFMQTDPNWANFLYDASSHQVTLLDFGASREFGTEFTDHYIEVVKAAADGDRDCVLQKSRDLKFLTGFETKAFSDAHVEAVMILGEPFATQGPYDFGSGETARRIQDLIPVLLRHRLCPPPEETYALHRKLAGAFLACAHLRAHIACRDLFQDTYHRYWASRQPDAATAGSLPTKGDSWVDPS
The test can be described thus: Selectivity interaction (KinomeScan (DiscoverX)) EUB0000607a ADCK4. As to conditions: at 10 µM.

The target of test [5] is Cyclin-dependent kinase 2/cyclin A (Homo sapiens) (UniProt P24941+P20248+P78396). The test can be described thus: Selectivity interaction (SelectScreen profiling (Invitrogen)) EUB0000607a CDK2. As to conditions: at 2 µM. In kind it is protein-complex assay.
Test [6] deals with Serine/threonine-protein kinase PAK 6 (Homo sapiens) (UniProt Q9NQU5). As to conditions: at 10 µM.
The subject of test [7] is Epidermal growth factor receptor (Homo sapiens), P00533 [UNDEFINED MUTATION]. The test can be described thus: Selectivity interaction (ProQinase) EUB0000171b EGFR. The settings on record: at 5 µM.
In test [8] the target is T3, Phosphorylase b kinase gamma catalytic chain, liver/testis isoform (Homo sapiens) (UniProt P15735).
T3 sequence (whole entry): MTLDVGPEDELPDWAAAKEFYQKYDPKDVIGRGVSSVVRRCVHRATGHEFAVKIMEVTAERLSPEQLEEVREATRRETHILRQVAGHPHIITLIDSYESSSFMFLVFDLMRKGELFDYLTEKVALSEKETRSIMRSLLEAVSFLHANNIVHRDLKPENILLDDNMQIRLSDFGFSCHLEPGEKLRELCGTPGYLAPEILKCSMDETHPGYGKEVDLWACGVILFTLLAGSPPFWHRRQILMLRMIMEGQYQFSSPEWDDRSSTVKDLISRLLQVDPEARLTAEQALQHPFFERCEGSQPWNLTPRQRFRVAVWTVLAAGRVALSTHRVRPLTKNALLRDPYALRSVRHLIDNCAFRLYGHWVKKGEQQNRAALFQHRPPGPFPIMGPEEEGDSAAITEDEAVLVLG
The test can be described thus: Selectivity interaction (Upstate Kinase Profiler service (Millipore)) EUB0000056c PHKG2. As to conditions: at 1 µM.

The target in test [9] is Ribosomal protein S6 kinase beta-1 (Homo sapiens, UniProt P23443). The test can be described thus: Selectivity interaction (KinomeScan (DiscoverX)) EUB0000618a RPS6KB1. As to conditions: at 10 µM.
For test [10], the target named is T4, Uncharacterized serine/threonine-protein kinase SBK3 (Homo sapiens) (UniProt P0C264).
T4 sequence (whole entry): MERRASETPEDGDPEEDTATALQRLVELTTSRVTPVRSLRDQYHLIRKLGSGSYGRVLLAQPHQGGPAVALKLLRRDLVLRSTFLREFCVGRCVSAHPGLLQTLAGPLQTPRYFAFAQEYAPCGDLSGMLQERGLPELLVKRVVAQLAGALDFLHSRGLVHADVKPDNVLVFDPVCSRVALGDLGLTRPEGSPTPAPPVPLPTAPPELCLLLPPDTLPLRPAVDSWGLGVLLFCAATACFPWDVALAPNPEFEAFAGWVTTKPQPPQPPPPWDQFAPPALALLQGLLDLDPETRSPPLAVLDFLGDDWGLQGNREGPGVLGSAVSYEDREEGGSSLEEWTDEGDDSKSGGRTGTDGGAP
The test can be described thus: Selectivity interaction (KinomeScan (DiscoverX)) EUB0000092b SBK3. The settings on record: at 10 µM.

For test [11], the target named is Tyrosine-protein kinase Fgr (Homo sapiens) (UniProt P09769). The test can be described thus: Selectivity interaction (KinomeScan (DiscoverX)) EUB0000229b FGR. As to conditions: at 10 µM.
Sequence of Tyrosine-protein kinase Fgr (Homo sapiens) (P09769 2-529 limits assumed): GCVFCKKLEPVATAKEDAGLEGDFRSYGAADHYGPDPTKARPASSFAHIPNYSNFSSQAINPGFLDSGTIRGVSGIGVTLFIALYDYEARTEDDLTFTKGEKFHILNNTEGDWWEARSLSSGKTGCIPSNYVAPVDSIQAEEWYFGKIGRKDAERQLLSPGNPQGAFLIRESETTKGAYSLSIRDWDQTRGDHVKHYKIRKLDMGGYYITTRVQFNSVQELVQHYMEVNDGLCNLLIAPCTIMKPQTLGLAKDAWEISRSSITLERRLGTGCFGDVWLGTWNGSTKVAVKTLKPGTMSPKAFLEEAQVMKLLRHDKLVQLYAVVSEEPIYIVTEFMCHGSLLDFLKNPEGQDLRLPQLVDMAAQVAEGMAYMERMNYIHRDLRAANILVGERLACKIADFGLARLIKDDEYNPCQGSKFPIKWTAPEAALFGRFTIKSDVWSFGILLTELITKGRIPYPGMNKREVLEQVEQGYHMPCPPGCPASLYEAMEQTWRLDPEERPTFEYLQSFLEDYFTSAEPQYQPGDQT

Sequence of Angiopoietin-1 receptor (Homo sapiens) (Q02763 whole entry): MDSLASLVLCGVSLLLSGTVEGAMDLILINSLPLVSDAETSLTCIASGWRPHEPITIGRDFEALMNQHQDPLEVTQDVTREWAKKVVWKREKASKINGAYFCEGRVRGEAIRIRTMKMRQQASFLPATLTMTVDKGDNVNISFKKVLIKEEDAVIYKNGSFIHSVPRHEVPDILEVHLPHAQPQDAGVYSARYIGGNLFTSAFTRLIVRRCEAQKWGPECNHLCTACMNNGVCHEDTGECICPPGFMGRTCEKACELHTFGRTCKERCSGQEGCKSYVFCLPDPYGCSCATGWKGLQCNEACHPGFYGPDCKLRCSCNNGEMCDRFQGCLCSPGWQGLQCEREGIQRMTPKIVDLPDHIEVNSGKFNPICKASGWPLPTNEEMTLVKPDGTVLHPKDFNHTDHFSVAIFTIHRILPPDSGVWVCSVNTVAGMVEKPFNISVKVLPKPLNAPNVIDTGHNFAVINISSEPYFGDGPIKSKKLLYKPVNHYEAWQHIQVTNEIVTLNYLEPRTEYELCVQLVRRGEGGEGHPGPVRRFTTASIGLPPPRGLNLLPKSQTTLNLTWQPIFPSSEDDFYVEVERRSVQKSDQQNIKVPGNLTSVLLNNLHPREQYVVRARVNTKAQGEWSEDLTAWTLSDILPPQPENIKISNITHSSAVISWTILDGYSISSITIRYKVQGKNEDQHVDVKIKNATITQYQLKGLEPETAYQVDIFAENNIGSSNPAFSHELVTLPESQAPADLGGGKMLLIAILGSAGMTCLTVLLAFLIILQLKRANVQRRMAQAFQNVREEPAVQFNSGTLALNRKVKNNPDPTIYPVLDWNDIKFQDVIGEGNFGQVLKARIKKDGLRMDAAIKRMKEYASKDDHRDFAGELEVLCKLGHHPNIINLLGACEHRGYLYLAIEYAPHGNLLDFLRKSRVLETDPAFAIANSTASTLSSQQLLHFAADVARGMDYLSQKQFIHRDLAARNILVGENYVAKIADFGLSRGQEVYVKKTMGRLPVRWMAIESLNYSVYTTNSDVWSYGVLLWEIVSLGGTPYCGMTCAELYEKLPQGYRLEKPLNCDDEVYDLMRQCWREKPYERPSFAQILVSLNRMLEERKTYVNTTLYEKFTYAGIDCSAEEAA
Sequence of Ribosomal protein S6 kinase beta-1 (P23443 whole entry, looked up): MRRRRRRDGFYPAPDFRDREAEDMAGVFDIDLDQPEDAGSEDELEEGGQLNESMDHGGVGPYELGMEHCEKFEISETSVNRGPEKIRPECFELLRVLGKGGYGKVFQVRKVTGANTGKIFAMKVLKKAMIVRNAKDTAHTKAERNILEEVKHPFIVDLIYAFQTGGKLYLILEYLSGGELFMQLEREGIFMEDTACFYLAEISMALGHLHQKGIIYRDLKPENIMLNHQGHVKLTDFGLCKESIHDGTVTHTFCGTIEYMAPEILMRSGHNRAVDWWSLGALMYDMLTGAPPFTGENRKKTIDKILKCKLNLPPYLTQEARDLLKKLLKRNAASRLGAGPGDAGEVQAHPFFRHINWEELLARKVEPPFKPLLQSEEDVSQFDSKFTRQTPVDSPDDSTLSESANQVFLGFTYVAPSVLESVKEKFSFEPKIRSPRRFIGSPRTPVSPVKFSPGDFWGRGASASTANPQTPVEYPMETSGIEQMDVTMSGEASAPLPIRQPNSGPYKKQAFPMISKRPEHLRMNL
Sequence of Epidermal growth factor receptor (Homo sapiens), P00533 [UNDEFINED MUTATION] (P00533 whole entry, looked up, change not shown, canonical isoform): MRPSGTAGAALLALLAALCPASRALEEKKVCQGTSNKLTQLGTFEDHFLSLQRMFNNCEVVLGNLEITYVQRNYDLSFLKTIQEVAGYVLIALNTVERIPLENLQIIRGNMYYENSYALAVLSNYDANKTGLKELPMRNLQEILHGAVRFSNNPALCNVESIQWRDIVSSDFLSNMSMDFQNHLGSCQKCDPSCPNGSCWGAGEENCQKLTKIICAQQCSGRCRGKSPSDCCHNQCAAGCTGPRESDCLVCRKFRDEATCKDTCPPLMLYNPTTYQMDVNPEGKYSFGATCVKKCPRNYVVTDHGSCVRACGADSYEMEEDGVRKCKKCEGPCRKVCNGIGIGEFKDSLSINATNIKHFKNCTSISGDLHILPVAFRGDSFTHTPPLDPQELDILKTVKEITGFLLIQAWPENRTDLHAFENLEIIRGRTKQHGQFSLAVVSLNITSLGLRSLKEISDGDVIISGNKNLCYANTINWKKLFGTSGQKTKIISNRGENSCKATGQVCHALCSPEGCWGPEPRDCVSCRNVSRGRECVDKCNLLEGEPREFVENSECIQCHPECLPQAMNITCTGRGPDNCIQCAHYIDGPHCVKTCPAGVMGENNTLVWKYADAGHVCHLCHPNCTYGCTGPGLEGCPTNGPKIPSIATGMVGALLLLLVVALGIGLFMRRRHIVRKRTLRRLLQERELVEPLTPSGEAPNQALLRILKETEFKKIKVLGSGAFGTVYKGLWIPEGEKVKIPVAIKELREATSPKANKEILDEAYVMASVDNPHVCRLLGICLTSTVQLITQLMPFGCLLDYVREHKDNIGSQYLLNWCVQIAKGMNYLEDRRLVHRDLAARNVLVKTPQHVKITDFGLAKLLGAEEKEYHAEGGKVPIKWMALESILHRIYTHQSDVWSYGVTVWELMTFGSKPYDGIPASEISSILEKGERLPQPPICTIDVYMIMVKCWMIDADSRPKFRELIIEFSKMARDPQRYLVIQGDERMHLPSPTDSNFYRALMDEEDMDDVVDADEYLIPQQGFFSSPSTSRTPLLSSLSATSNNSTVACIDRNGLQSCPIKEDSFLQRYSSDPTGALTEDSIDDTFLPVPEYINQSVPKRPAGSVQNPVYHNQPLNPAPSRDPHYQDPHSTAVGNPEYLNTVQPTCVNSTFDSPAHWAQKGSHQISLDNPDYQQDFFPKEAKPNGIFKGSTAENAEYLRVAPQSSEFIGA
Sequence of Tyrosine-protein kinase ABL1 (Homo sapiens), P00519 [F317I] (P00519 whole entry F317I): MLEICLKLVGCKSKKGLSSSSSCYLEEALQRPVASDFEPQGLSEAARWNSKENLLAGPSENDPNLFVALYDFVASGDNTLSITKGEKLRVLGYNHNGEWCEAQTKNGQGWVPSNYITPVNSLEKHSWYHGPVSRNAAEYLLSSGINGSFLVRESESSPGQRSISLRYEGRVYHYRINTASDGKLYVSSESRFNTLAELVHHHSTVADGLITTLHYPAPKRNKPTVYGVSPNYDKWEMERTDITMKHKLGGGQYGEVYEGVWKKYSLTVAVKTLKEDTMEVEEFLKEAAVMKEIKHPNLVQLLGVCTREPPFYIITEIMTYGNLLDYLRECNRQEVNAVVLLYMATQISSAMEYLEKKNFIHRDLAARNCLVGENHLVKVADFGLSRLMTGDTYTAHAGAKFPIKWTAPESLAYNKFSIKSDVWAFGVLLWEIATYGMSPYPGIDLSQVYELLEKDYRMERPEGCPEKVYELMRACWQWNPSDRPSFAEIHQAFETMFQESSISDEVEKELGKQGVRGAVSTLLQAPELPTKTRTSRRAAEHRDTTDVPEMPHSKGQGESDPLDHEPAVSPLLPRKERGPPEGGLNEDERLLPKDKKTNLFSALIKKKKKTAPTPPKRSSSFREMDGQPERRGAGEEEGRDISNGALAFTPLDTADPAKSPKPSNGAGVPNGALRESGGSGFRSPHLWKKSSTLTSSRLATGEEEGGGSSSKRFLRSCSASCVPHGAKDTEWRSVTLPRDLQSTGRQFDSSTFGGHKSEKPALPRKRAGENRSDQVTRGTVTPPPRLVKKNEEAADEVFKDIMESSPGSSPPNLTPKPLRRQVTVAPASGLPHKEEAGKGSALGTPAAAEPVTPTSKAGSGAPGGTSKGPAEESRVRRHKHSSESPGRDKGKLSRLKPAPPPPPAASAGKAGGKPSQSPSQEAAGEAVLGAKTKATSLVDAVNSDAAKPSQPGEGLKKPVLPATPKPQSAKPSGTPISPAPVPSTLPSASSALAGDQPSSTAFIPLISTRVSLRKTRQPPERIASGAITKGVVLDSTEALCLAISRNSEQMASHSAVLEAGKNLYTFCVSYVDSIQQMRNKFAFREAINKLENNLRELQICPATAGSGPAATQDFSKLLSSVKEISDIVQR

`CCN(CC)CCCCNc1ncc2cc(-c3cc(OC)cc(OC)c3)c(NC(=O)NC(C)(C)C)nc2n1` showed a % of control in test [1] of 100%.

`O=C(NOC[C@H](O)CO)c1ccc(F)c(F)c1Nc1ccc(I)cc1F` had a % of control in test [2] of 100%.

Regarding `CNC(=O)Nc1ccc(-c2nc(N3CC4CCC(C3)O4)c3cnn(C4CCC5(CC4)OCCO5)c3n2)cc1`, the % of control in test [3] and in test [4] was 100% each time. In test [5], this molecule showed a % of inhibition of 0%.

For `Cc1cc([C@@H](C)Nc2ccccc2C(=O)O)c2nc(N3CCOCC3)cc(=O)n2c1` [AZD-6482], the % of control in test [6] worked out at 99%.

With `C=CC(=O)Nc1cccc(C(=O)Nc2ccc(Nc3cc(-c4[nH]c(SC)nc4C)ccn3)cc2)c1`, in test [7], the % of control was determined as 101%.

For `Cc1ccc(-c2ccc3c(ccc4sc5c(c43)NC[C@@H](C)NC5=O)n2)cn1`, the % of inhibition in test [8] came to 58%.

Molecule `O[C@H]1CC[C@H](Nc2ncc3nc(Nc4c(F)cc(F)cc4F)n([C@H]4CCOC4)c3n2)CC1` yielded a % of control in test [9] of 80%.

For the molecule `CCC(=O)N1CCN(c2ccc(-n3c(=O)ccc4cnc5ccc(-c6cnc7ccccc7c6)cc5c43)cc2C(F)(F)F)CC1`, the % of control in [10] was determined as 94%.

For the molecule `COc1cc(N(C)c2ccnc3ccc(C(F)(F)F)cc23)cc(OC)c1OC`, the % binding in test [11] was determined as 97%.
